The source of these data is patent publication US20220204473A1, “COMPOUND AS IRAK INHIBITOR” (SHANGHAI MEIYUE BIOTECH DEVELOPMENT CO., LTD., priority 2018, published 2022).

pIC50: −log10 of the molar value.

Data set [1] can be described thus: Stability in human liver microsomes. Type of data set: in vitro ADME. Conditions: for half-life at 1 μM: pH 7.4, ∞ = no obvious metabolism found during assay, read-out: Stability test in liver microsomes t1/2, Human. On the procedure: (§1) 1. Preparation of buffer C:
(§2) Buffer A: 1.0 L of 0.1 M monopotassium phosphate buffer (containing 1.0 mM EDTA);
(§3) Buffer A: 1.0 L of 0.1 M dipotassium phosphate buffer (containing 1.0 mM EDTA);
(§4) Buffer C: Buffer A was added to 700 mL of buffer B until pH reached 7.4.
(§5) The test compound and the reference were separately dissolved in DMSO to give 10 mM stocks.
(§6) 500 μM solution: 10 μL of 10 mM stock solution was added to 190 μL of acetonitrile;
(§7) 1.5 μM dosing solution (in liver microsome solution):
(§8) 18.75 μL of 20 mg/mL liver microsomes were added to 479.75 μL of buffer C, followed by 1.5 μL of 500 μM solution. The mixture was gently shaken to mix well.
(§9) NADPH was weighed, to which an appropriate amount of buffer C was added to prepare a 6 mM NADPH solution.
(§10) 5. 30 μL of 1.5 μM dosing solution was added to wells of a 96-well plate set for different time points (0 min, 5 min, 15 min, 30 min, 45 min) in duplicate.
(§11) 6. Preparation of 0 min samples: 135 μL of acetonitrile (containing internal standard) was added to the 0 min wells, followed by 15 μL of 6 mM NADPH solution.
(§12) 7. The 96-well plate containing 1.5 μM dosing solution and NADPH solution were preheated for 5 min in a water bath at 37° C.
(§13) 8. 15 μL of pre-heated 6 mM NADPH solution was added to wells set for 5 min, 15 min, 30 min and 45 min to start the reaction.
(§14) 9. At time points of 5 min, 15 min, 30 min and 45 min, the reaction was terminated by adding 135 μL of acetonitrile (containing internal standard). The mixtures were vortexed for 10 min and centrifuged at 5594×g for 15 min (Thermo Multifuge×3R).
(§15) 10. 50 μL of the supernatant was transferred to wells of a 96-well plate containing 50 μL of water. The samples were mixed and finally subjected to LC-MS/MS analysis.
In general terms: Microsomes from liver hold many membrane-bound enzymes, among them those of drug oxidation.

The subject of data set [2] is TNF-α release in LPS-induced Balb/c female mice. Put plainly: Inhibition of TNF-α release in LPS-induced Balb/c female mice. Also noted: concentration or dose not given beside the values. Type of data set: in vivo, mouse. Conditions: oral gavage 5 h before LPS induction, serum 1.5 h after stimulation. On the procedure:
In the normal control groups, the animals received an intraperitoneal injection of normal saline (10 mL/kg) and in the model groups, the animals received LPS stimulation (Sigma CAT #L2630, i.p., 10 mL/kg, 0.2 mg/kg). During the assay, to the test compounds, DMSO, Solutol and 10 mM PBS were sequentially added to prepare a solution or suspension of required concentration for administration. For the vehicle, DMSO, Solutol and 10 mM PBS were mixed in a volume ratio of 5:15:80. In each of the groups, the animals were administered through oral gavage (10 mL/kg) 5 h before LPS (or saline) stimulation at predetermined doses, and euthanized with CO2 at 1.5 h after the stimulation for cardiac blood collection. The whole blood was not anticoagulated, incubated in wet ice for 1.5 h, and centrifuged at 2000×g at 4° C. for 10 min to separate the serum. The serum was frozen at −80° C. for TNF-α assay. Quantification of the TNF-α was done with TNF-α ELISA kit according to the manufacturer's instruction.

For data set [3], the target named is T1, human IRAK4 (Homo sapiens, UniProt Q9NWZ3).
T1 construct: purchased Cama (so in the source)
T1 sequence (Q9NWZ3 1-460): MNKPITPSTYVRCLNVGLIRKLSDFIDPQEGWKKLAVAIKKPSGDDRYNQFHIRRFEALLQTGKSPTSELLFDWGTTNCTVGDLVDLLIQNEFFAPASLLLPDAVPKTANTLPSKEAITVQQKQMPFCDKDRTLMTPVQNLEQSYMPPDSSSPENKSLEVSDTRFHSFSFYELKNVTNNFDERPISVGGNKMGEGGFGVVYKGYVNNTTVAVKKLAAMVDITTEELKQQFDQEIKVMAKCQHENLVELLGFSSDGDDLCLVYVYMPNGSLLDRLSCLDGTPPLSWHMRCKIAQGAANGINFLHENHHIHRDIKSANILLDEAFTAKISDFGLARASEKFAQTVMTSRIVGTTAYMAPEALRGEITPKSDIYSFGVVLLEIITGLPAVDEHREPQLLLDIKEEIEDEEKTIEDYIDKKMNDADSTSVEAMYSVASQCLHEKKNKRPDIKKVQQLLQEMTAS
Put plainly: IRAK4 MSA (Mobility-Shift Assay) at Km ATP. Type of data set: biochemical. Conditions: GST-IRAK4 1 nM, ATP 37 μM (Km); read-out: IC50 for inhibiting human IRAK4 kinase. On the procedure: A recombinant fusion protein of N-terminal GST (glutathione-S-transferase) and human IRAK4 was used as enzyme (GST-IRAK4, kinase IRAK4 (Cama)) at a final concentration of 1 nM; ATP (Sigma) was at a final concentration of 37 μM; the substrates used for the kinase reaction were a 5-FAM (5-carboxyfluorescein)-labeled polypeptide (5-FAM-[…]-COOH) and a substrate peptide FAM-P8 (GL Biochem) at final concentrations of […].
In this assay, 500 μM solutions of the compounds were prepared in 100% DMSO, and serially 4-fold diluted to the 10th concentration gradient with 100% DMSO, followed by a 10-fold dilution in the compound buffer (50 mM HEPES. pH 7.5, 0.00015% Brij-35) to give intermediate dilutions of the compounds at a final concentration of 10 μM-0.04 nM containing 10% DMSO respectively, 5 μL of the dilutions were transferred into a black 384-well plate respectively.
IRAK4 was diluted to 2.5 nM in the kinase buffer (50 mM HEPES, pH 7.5, 0.00015% Brij-35, 2 mM DTT). 10 μL of the IRAK4 dilution was transferred to the 384-well plate and co-incubated with the compound for 10-15 min.
The substrate and ATP were diluted to 12.5 μM and 92.5 μM with reaction buffer (50 mM HEPES, pH 7.5, 0.00015% Brij-35, 10 mM MgCl2), respectively. 10 μL of the dilutions were transferred to a 384-well plate and incubated at 28° C. for 1 h respectively. The reaction was terminated by adding 25 μL of 50 mM EDTA to the 384-well plate.
The inhibition rates of IRAK4 by the compounds were calculated by measuring the rate of phosphorylated substrate using a Caliper EZ Reader (PerkinElmer) and the IC50 values were calculated by XL-fit software.

A short description of data set [4]: Stability in mouse liver microsomes. Type of data set: in vitro ADME. Conditions: for half-life at 1 μM: pH 7.4, ∞ = no obvious metabolism found during assay, read-out: Stability test in liver microsomes t1/2, Mouse. Here is the method: as §1, §2, §3, §4, §5, §6, §7, §8, §9, §10, §11, §12, §13, §14, §15
Data set [5] can be described thus: Stability in rat liver microsomes. Type of data set: in vitro ADME. Conditions: for half-life at 1 μM: pH 7.4, ∞ = no obvious metabolism found during assay, read-out: Stability test in liver microsomes t1/2, Rat; for Stability test in liver microsomes t1/2, Rat: ∞ = no obvious metabolism found during assay. Here is the method: as §1, §2, §3, §4, §5, §6, §7, §8, §9, §10, §11, §12, §13, §14, §15

Setting [6] is: ∞ = no obvious metabolism found during assay.

A word on the pIC50: it is the negative decadic logarithm of the IC50, by convention in mol/L. Regarding `CN(C)c1cc2nn([C@H]3C[C@H](C(C)(C)O)C3)cc2cc1NC(=O)c1cccc(C(F)(F)F)n1` [MY-004-089], the half-life at 1 μM in data set [1] turned out to be 2140 min; in data set [4] it was 564 min; in data set [5], 292 min. In addition, in data set [2], the “Inhibition rate of TNF-α” value came out at 91.27%. Moreover, in data set [3], the negative-log IC50 (pIC50) was 8.17.

As for `COc1cc2nn([C@H]3CC[C@](C)(O)CC3)cc2cc1NC(=O)c1cccc(C(F)(F)F)n1` [MY-004-126-1], the results for the half-life at 1 μM in data set [1], in data set [4] and in data set [5] were 469 min, 354 min and 398 min, respectively. Moreover, the “Inhibition rate of TNF-α” value in data set [2] came to 94.43%. In data set [3], the pIC50 is 8.57.

As for `COc1cc2nn([C@H]3CC[C@@](C)(O)CC3)cc2cc1NC(=O)c1cccc(C(F)(F)F)n1` [MY-004-126-2], the half-life at 1 μM in data set [1] stood at 25700 min; in data set [4], 802 min. In data set [2], the “Inhibition rate of TNF-α” value is recorded as 94.11%. In addition, in data set [3], the pIC50 was 9.00. Moreover, the “Stability test in liver microsomes t1/2, Rat” value in data set [5] was “∞”.

For the compound `COc1cc2nn([C@H]3CC[C@H](O)CC3)cc2cc1NC(=O)c1cccc(C(F)(F)F)n1` [MY-004-127-1], the values for the half-life at 1 μM in data set [1], in data set [4] and in data set [5] were 770 min, 46100 min and 306 min, respectively. In data set [2], the “Inhibition rate of TNF-α” value came to 89.29%. Besides, the negative logarithm of the IC50 (pIC50) in data set [3] was 8.28.

`CN(C)c1cc2nn([C@H]3CC[C@H](O)CC3)cc2cc1NC(=O)c1cccc(C(F)(F)F)n1` [MY-004-153]: the “Stability test in liver microsomes t1/2, Human” value in data set [1] (setting [6]) is “∞”. The “Inhibition rate of TNF-α” value in data set [2] was determined as 88.42%. The negative logarithm of the IC50 (pIC50) in data set [3] is 8.72. Also, the half-life at 1 μM in data set [4] is 283 min; in data set [5] it was 250 min.

In the case of `CC(C)(O)c1cc2nn([C@H]3CC[C@](C)(O)CC3)cc2cc1NC(=O)c1cccc(C(C)(F)F)n1` [MY-004-165], the half-life at 1 μM in data set [1] was 3240 min. Moreover, in data set [2], the “Inhibition rate of TNF-α” value is 88.99%. Besides, the pIC50 in data set [3] was 8.38. In addition, the “Stability test in liver microsomes t1/2, Mouse” value in data set [4] (setting [6]) is “∞”. Further, the “Stability test in liver microsomes t1/2, Rat” value in data set [5] is reported as “∞”.
